Results published in ChEMBL document CHEMBL5131391, “One-pot three-component synthesis of novel pyrazolo[3,4-b]pyridines as potent antileukemic agents” (Eur J Med Chem, 2022).

Experiments:
Format in all cases: functional
SNB-19 = assay: Antiproliferative activity against human SNB-19 cells assessed as growth inhibition at 10 uM measured after 48 hrs by NCI protocol based SRB assay relative to control; settings: read-out: GI
IGROV-1 = assay: Antiproliferative activity against human IGROV-1 cells assessed as growth inhibition at 10 uM measured after 48 hrs by NCI protocol based SRB assay relative to control; settings: read-out: GI
NCI-H226 = assay: Antiproliferative activity against human NCI-H226 cells assessed as growth inhibition at 10 uM measured after 48 hrs by NCI protocol based SRB assay relative to control; settings: read-out: GI
PC-3 = assay: Antiproliferative activity against human PC-3 cells assessed as growth inhibition at 10 uM measured after 48 hrs by NCI protocol based SRB assay relative to control; settings: read-out: GI
MDA-MB-435 = assay: Antiproliferative activity against human MDA-MB-435 cells assessed as growth inhibition at 10 uM measured after 48 hrs by NCI protocol based SRB assay relative to control; settings: read-out: GI
SK-MEL-5 = assay: Antiproliferative activity against human SK-MEL-5 cells assessed as growth inhibition at 10 uM measured after 48 hrs by NCI protocol based SRB assay relative to control; settings: read-out: GI
OVCAR-4 = assay: Antiproliferative activity against human OVCAR-4 cells assessed as growth inhibition at 10 uM measured after 48 hrs by NCI protocol based SRB assay relative to control; settings: read-out: GI
RPMI-8226 = assay: Antiproliferative activity against human RPMI-8226 cells assessed as growth inhibition at 10 uM measured after 48 hrs by NCI protocol based SRB assay relative to control; settings: read-out: GI
MOLT-4 = assay: Antiproliferative activity against human MOLT-4 cells assessed as growth inhibition at 10 uM measured after 48 hrs by NCI protocol based SRB assay relative to control; settings: read-out: GI
UACC-257 = assay: Antiproliferative activity against human UACC-257 cells assessed as growth inhibition at 10 uM measured after 48 hrs by NCI protocol based SRB assay relative to control; settings: read-out: GI
UO-31 = assay: Antiproliferative activity against human UO-31 cells assessed as growth inhibition at 10 uM measured after 48 hrs by NCI protocol based SRB assay relative to control; settings: read-out: GI
EKVX = assay: Antiproliferative activity against human EKVX cells assessed as growth inhibition at 10 uM measured after 48 hrs by NCI protocol based SRB assay relative to control; settings: read-out: GI
HT-29 = assay: Antiproliferative activity against human HT-29 cells assessed as growth inhibition at 10 uM measured after 48 hrs by NCI protocol based SRB assay relative to control; settings: read-out: GI
UACC-62 = assay: Antiproliferative activity against human UACC-62 cells assessed as growth inhibition at 10 uM measured after 48 hrs by NCI protocol based SRB assay relative to control; settings: read-out: GI
MDA-MB-468 = assay: Antiproliferative activity against human MDA-MB-468 cells assessed as growth inhibition at 10 uM measured after 48 hrs by NCI protocol based SRB assay relative to control; settings: read-out: GI
NCI-H460 = assay: Antiproliferative activity against human NCI-H460 cells assessed as growth inhibition at 10 uM measured after 48 hrs by NCI protocol based SRB assay relative to control; settings: read-out: GI
ACHN = assay: Antiproliferative activity against human ACHN cells assessed as growth inhibition at 10 uM measured after 48 hrs by NCI protocol based SRB assay relative to control; settings: read-out: GI
SK-MEL-2 = assay: Antiproliferative activity against human SK-MEL-2 cells assessed as growth inhibition at 10 uM measured after 48 hrs by NCI protocol based SRB assay relative to control; settings: read-out: GI
HCT-116 = assay: Antiproliferative activity against human HCT-116 cells assessed as growth inhibition at 10 uM measured after 48 hrs by NCI protocol based SRB assay relative to control; settings: read-out: GI
NCI-H522 = assay: Antiproliferative activity against human NCI-H522 cells assessed as growth inhibition at 10 uM measured after 48 hrs by NCI protocol based SRB assay relative to control; settings: read-out: GI
KM12 = assay: Antiproliferative activity against human KM12 cells assessed as growth inhibition at 10 uM measured after 48 hrs by NCI protocol based SRB assay relative to control; settings: read-out: GI
MDA-MB-231 = assay: Antiproliferative activity against human MDA-MB-231 cells assessed as growth inhibition at 10 uM measured after 48 hrs by NCI protocol based SRB assay relative to control; settings: read-out: GI
U-251 = assay: Antiproliferative activity against human U-251 cells assessed as growth inhibition at 10 uM measured after 48 hrs by NCI protocol based SRB assay relative to control; settings: read-out: GI
786-0 = assay: Antiproliferative activity against human 786-0 cells assessed as growth inhibition at 10 uM measured after 48 hrs by NCI protocol based SRB assay relative to control; settings: read-out: GI
SR = assay: Antiproliferative activity against human SR cells assessed as growth inhibition at 10 uM measured after 48 hrs by NCI protocol based SRB assay relative to control; settings: read-out: GI
K562 [1] = assay: Antiproliferative activity against human K562 cells assessed as growth inhibition at 10 uM measured after 48 hrs by NCI protocol based SRB assay relative to control; settings: read-out: GI
SK-OV-3 = assay: Antiproliferative activity against human SK-OV-3 cells assessed as growth inhibition at 10 uM measured after 48 hrs by NCI protocol based SRB assay relative to control; settings: read-out: GI
HOP-92 = assay: Antiproliferative activity against human HOP-92 cells assessed as growth inhibition at 10 uM measured after 48 hrs by NCI protocol based SRB assay relative to control; settings: read-out: GI
A549 = assay: Antiproliferative activity against human A549 cells assessed as growth inhibition at 10 uM measured after 48 hrs by NCI protocol based SRB assay relative to control; settings: read-out: GI
SF-539 = assay: Antiproliferative activity against human SF-539 cells assessed as growth inhibition at 10 uM measured after 48 hrs by NCI protocol based SRB assay relative to control; settings: read-out: GI
HCT-15 = assay: Antiproliferative activity against human HCT-15 cells assessed as growth inhibition at 10 uM measured after 48 hrs by NCI protocol based SRB assay relative to control; settings: read-out: GI
SW-620 = assay: Antiproliferative activity against human SW-620 cells assessed as growth inhibition at 10 uM measured after 48 hrs by NCI protocol based SRB assay relative to control; settings: read-out: GI
MCF7 = assay: Antiproliferative activity against human MCF7 cells assessed as growth inhibition at 10 uM measured after 48 hrs by NCI protocol based SRB assay relative to control; settings: read-out: GI
SN12C = assay: Antiproliferative activity against human SN12C cells assessed as growth inhibition at 10 uM measured after 48 hrs by NCI protocol based SRB assay relative to control; settings: read-out: GI
CCRF-CEM [2] = assay: Antiproliferative activity against human CCRF-CEM cells assessed as growth inhibition at 10 uM measured after 48 hrs by NCI protocol based SRB assay relative to control; settings: read-out: GI
T47D = assay: Antiproliferative activity against human T47D cells assessed as growth inhibition at 10 uM measured after 48 hrs by NCI protocol based SRB assay relative to control; settings: read-out: GI
MV4-11 = assay: Antiproliferative activity against human MV4-11 cells assessed as reduction in cell viability incubated for 72 hrs by resazurin dye based assay; settings: MV4-11, 72 h
CAKI-1 = assay: Antiproliferative activity against human CAKI-1 cells assessed as growth inhibition at 10 uM measured after 48 hrs by NCI protocol based SRB assay relative to control; settings: read-out: GI
OVCAR-8 = assay: Antiproliferative activity against human OVCAR-8 cells assessed as growth inhibition at 10 uM measured after 48 hrs by NCI protocol based SRB assay relative to control; settings: read-out: GI
CCRF-CEM [3] = assay: Antiproliferative activity against human CEM cells assessed as reduction in cell viability incubated for 72 hrs by resazurin dye based assay
SF-268 = assay: Antiproliferative activity against human SF-268 cells assessed as growth inhibition at 10 uM measured after 48 hrs by NCI protocol based SRB assay relative to control; settings: read-out: GI
SNB-75 = assay: Antiproliferative activity against human SNB-75 cells assessed as growth inhibition at 10 uM measured after 48 hrs by NCI protocol based SRB assay relative to control; settings: read-out: GI
NCI/ADR-RES = assay: Antiproliferative activity against human NCl/ADR-RES cells assessed as growth inhibition at 10 uM measured after 48 hrs by NCI protocol based SRB assay relative to control; settings: read-out: GI
K562 [4] = assay: Antiproliferative activity against human K562 cells assessed as reduction in cell viability incubated for 72 hrs by resazurin dye based assay; settings: K562, 72 h

`COc1cc(-c2c(C#N)c(-c3ccco3)nc3c2c(-c2ccccc2)nn3-c2ccccc2)ccc1O` gave an inhibition of growth at 10 µM (SNB-19) of 13%, an inhibition of growth at 10 µM (IGROV-1) of 13% and an inhibition of growth at 10 µM (NCI-H226) of 15%. It also gave an inhibition of growth at 10 µM (PC-3) of 41%, an inhibition of growth at 10 µM (MDA-MB-435) of 23% and an inhibition of growth at 10 µM (SK-MEL-5) of 20%. It also gave an inhibition of growth at 10 µM (OVCAR-4) of 19%, an inhibition of growth at 10 µM (RPMI-8226) of 21% and an inhibition of growth at 10 µM (MOLT-4) of 47%. The inhibition of growth at 10 µM (UACC-257) was 16%, the inhibition of growth at 10 µM (UO-31) was 27% and the inhibition of growth at 10 µM (EKVX) was 31%. The inhibition of growth at 10 µM (HT-29) was 15%, the inhibition of growth at 10 µM (UACC-62) was 18% and the inhibition of growth at 10 µM (MDA-MB-468) was 14%. It also gave an inhibition of growth at 10 µM (NCI-H460) of 28%, an inhibition of growth at 10 µM (ACHN) of 12% and an inhibition of growth at 10 µM (SK-MEL-2) of 11%. It also gave an inhibition of growth at 10 µM (HCT-116) of 43%, an inhibition of growth at 10 µM (NCI-H522) of 30% and an inhibition of growth at 10 µM (KM12) of 15%. The inhibition of growth at 10 µM (MDA-MB-231) was 17%, the inhibition of growth at 10 µM (U-251) was 15% and the inhibition of growth at 10 µM (786-0) was 26%. For the same molecule, the inhibition of growth at 10 µM (SR) was 34%, the inhibition of growth at 10 µM (K562 [1]) was 32% and the inhibition of growth at 10 µM (SK-OV-3) was 15%. The inhibition of growth at 10 µM (HOP-92) was 33%, the inhibition of growth at 10 µM (A549) was 39% and the inhibition of growth at 10 µM (SF-539) was 13%. For the same molecule, the inhibition of growth at 10 µM (HCT-15) was 28%, the inhibition of growth at 10 µM (SW-620) was 11% and the inhibition of growth at 10 µM (MCF7) was 34%. It also gave an inhibition of growth at 10 µM (SN12C) of 18%, an inhibition of growth at 10 µM (CCRF-CEM [2]) of 25% and an inhibition of growth at 10 µM (T47D) of 34%. The IC50 (MV4-11) was 35.3 µM, the inhibition of growth at 10 µM (CAKI-1) was 29% and the inhibition of growth at 10 µM (OVCAR-8) was 15%. It also gave an IC50 (CCRF-CEM [3]) of 36.5 µM, an inhibition of growth at 10 µM (SF-268) of 25% and an inhibition of growth at 10 µM (SNB-75) of 27%. For the same molecule, the inhibition of growth at 10 µM (NCI/ADR-RES) was 19% and the IC50 (K562 [4]) was 24.9 µM.
